Assay results from patent US20110098216A1 (REGEN THERAPEUTICS PLC, priority 2009, published 2011).

Legend:
[1] = system: polychromatic erythrocytes in bone marrow of male and female ICR mice; conditions: definitive study, male and female mice, 24 or 48 h after dose; CP 50 mg/kg; Kastenbaum-Bowman Tables
Method: (§1) The assay was performed in two phases. The first phase, pilot toxicity study, was designed to assess toxicity of the test article and set dose levels for the definitive study. The second phase, the definitive micronucleus study, was designed to evaluate the potential of the test article to increase the incidence of micronucleated polychromatic erythrocytes in bone marrow of male and female ICR mice.
(§2) Phosphate buffered saline (PBS) was used as the test article vehicle. The test article was a workable suspension in PBS at 100 mg/mL, the maximum concentration prepared and tested in this study. […] In both phases of the study, test or control articles were administered at a dose volume of 20 mL/kg body weight via a single oral gavage dose.
(§3) The definitive micronucleus study consisted of seven groups, each containing 5 male and female ICR mice. […] An additional group of 5 male and 5 female ICR mice were treated with 2000 mg/kg to be used as possible replacement animals for the high dose in the event of mortality. […] Bone marrow cells [polychromatic erythrocytes (2000 PCEs/animal)] collected 24 and 48 hours after treatment were examined microscopically for the presence of micronuclei.

male and female ICR mice = conditions: mouse, in vivo
Method: as §1, §2, §3

[2] = system: Chinese hamster ovary (CHO) cells; assay: Chromosome aberration assay in CHO cells; format: cell-based; conditions: preliminary toxicity assay, any dose level up to 5000 μg/mL, all three exposure groups
Method: A preliminary toxicity test was performed to establish the dose range for the chromosome aberration assay. The chromosome aberration assay was used to evaluate the clastogenic potential of the test article. The dosing solution concentrations were adjusted to compensate for the protein content (13.6%) of the test article using a correction factor of 7.35.
In order to evaluate the toxic effect of lactose alone on the test system, α-Lactose monohydrate was tested as reference article at the same percentage of lactose as in the highest test article dose formulation in the preliminary toxicity assay. McCoy's media (complete medium for the non-activated test system and serum-free medium for the S9-activated test system) were the solvents of choice based on the solubility of the test article and compatibility with the target cells. […] The reference article was soluble in McCoy's complete and serum-free media at the dose level tested in the preliminary toxicity assay.
In the preliminary toxicity assay, the maximum dose tested was 5000 μg/mL. […] The reference article was soluble in complete medium and serum-free medium at 31.76 mg/mL at the beginning and conclusion of the treatment period. […]

[3] = Solubility and precipitation in water / on plates (mutation assay); format: physicochemical; conditions: initial toxicity-mutation assay with lactose, up to 31765 μg per plate
Method: (§4) The dose levels tested were 1.5, 5.0, 15, 50, 150, 500, 1500 and 5000 μg per plate.
(§5) The dose levels tested were 50, 150, 500, 1500 and 5000 μg per plate.

[4] = system: Salmonella typhimurium tester strains TA98, TA100, TA1535 and TA1537 and Escherichia coli tester strain WP2 uvrA; assay: Bacterial Reverse Mutation Assay (plate incorporation method); conditions: initial toxicity-mutation assay with lactose, maximum dose 31765 μg per plate
Method: as §4
Based on the findings of the initial toxicity-mutation assay, the maximum dose plated in the confirmatory mutagenicity assay was 5000 μg per plate.
as §5

Compound	incidence of micronucleated polychromatic erythrocytes relative to vehicle control [1]	mortality and clinical signs (male and female ICR mice)	substantial toxicity (at least 50% cell growth inhibition relative to solvent control) [2]	precipitate [3]	toxicity [4]
O=P1(N(CCCl)CCCl)NCCCO1 (centres unmarked) [CP, cyclophosphamide monohydrate]	significant increase				
O.OC[C@H]1O[C@@H](O[C@H]2[C@H](O)[C@@H](O)[C@@H](O)O[C@@H]2CO)[C@H](O)[C@@H](O)[C@H]1O [α-Lactose monohydrate]		no clinical signs	not observed	Neither precipitate	Neither precipitate nor appreciable toxicity
